The values that follow come from patent US6673899B2, “Sodium ion-driven chloride /bi-carbonate exchanger” (JCR Pharmaceuticals Co., Ltd., priority 2000, dated 2004).

Experiment [1] addresses T1, NCBE (Na+-driven Cl-/HCO3- exchanger) (Mus musculus, UniProt Q5DTL9).
T1 construct: expressed in transfected cells; host or cells: Xenopus laevis oocytes injected with NCBE cRNA (pSD5, SP6 transcript)
T1 sequence (Q5DTL9 1-1088 isoform Q5DTL9-2): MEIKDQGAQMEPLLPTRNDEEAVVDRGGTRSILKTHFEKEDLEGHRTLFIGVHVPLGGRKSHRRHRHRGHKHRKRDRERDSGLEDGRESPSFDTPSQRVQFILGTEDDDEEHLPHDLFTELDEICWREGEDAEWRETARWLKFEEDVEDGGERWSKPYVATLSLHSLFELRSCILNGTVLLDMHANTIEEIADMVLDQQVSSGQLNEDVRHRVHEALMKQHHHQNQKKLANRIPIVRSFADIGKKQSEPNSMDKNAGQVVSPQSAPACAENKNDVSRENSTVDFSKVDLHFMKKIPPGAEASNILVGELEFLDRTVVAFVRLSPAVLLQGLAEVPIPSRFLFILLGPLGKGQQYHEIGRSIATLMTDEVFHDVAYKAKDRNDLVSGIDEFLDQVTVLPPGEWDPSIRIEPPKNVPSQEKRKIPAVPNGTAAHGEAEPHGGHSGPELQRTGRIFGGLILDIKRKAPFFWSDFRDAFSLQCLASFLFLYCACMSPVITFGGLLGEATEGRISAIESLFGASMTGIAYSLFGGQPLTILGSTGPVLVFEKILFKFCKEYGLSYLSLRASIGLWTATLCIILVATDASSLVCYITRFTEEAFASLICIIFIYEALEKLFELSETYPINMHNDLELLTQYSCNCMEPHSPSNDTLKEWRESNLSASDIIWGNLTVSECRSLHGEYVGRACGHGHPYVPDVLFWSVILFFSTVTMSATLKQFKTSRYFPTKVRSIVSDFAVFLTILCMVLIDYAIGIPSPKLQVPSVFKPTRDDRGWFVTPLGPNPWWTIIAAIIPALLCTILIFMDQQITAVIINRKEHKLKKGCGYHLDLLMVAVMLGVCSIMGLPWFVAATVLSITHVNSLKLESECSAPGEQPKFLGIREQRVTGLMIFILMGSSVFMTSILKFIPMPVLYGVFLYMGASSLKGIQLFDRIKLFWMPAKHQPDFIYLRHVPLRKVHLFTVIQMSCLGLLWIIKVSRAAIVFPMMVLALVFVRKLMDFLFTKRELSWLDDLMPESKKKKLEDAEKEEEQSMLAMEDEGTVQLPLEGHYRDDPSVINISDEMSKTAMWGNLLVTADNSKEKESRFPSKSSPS
Nature of the experiment: 22Na+ uptake in NCBE cRNA-injected Xenopus laevis oocytes. Type of experiment: cell-based. The procedure: (§1) The coding sequence of NCBE in pSD5 was linearized by digestion with FspI and in vitro transcribed with SP6 RNA polymerase as previously described (Wang, C -Z. et al., Biochem. Biophys. Res. Commun., 220:196-202(1996)). Defolliculated oocytes were injected with NCBE cRNA (50 nl, 0.5 μg/μl) or water and incubated in 1×MBS medium (88 mM NaCl, 1 mM KCl, 0.8 mM MgCl2, 0.4 mM CaCl2, 0.3 mM Ca(NO3)2, 2.4 mM NaHCO3 and 7.5 mM Tris, pH 7.4) for 3-5 days at 18° C. before the studies. The oocytes were preincubated for one hr at 18° C. in the standard solution (100 mM NaCl, 2 mM KCl, 1 mM MgCl2, 1 mM CaCl2, and 8 mM NaHCO3, pH 7.4).
(§2) For studies of dependency on extracellular Na^+concentration, the oocytes were then incubated in 1.4 ml of either 1, 10, 30 or 100 mM Na^+solution bubbled with 1.5% CO2, pH 7.4 with 0.074 MBq of ^22Na+ (NEN™ Life Science Products, Boston, Mass.). In each solution, the Na^+in the standard solution was substituted with an equal molar amount of choline. A ten μl aliquot was removed from the incubation solution for later determination of ^22Na^+-specific activity. […]
(§3) The present inventors also examined the effect of DIDS, an inhibitor of anion-transporter, on ^22Na^+uptake. Expression was assessed in the absence or presence of 0.3 mM DIDS. […]

The next experiment has as its system water-injected oocytes. In words: 22Na+ uptake in water-injected Xenopus laevis oocytes (control). Type of experiment: cell-based. The note with it: in the presence of 300 μM DIDS, mean ± SE, n=19, 1.6±0.3 in the absence of DIDS. The procedure: as §1, §2, §3

SMILES strings stand for the structures.

Consider `O=S(=O)(O)c1cc(N=C=S)ccc1C=Cc1ccc(N=C=S)cc1S(=O)(=O)O` [DIDS, 4,4′-diisothiocyanostilbene-2,2′-disulfonic acid], for which, in experiment [1] (300 μM DIDS, NCBE cRNA-injected oocytes (FIG. 5)), the “effect on 22Na+ uptake by NCBE” value is given as “partially inhibit”. Further, the “22Na+ uptake” value in experiment [1] (NCBE cRNA-injected oocytes, in the presence of 300 μM DIDS, 15 min, standard solution, mean ± SE, n=14, 31.4±2.1 in the absence of DIDS) is listed as 6.0±0.7 nmol/oocyte/hour; in the experiment on water-injected oocytes it was 2.1±0.4 nmol/oocytes/hour.
